“Also recorded” adds a separate entry of the source. Counter-ions that a name gives are not always drawn. Like-named read-outs stand apart in the source and are kept apart here.

The values that follow come from patent US5445941A, “Method for screening anti-osteoporosis agents” (Eli Lilly and Company, priority 1993, dated 1995).

Series [1] concerns TGFβ-3 promoter. The series is described as follows: Dose response of TGFβ-3 promoter (pB-301) CAT induction in MG63 cells with pRSVER. The conditions noted are these: for CAT activity: 24 h, vehicle 0.85. The procedure:
For each group of twelve cultures, the particular estrogen or antiestrogen compound was tested in replicate cultures at […], varying in tenfold increments from 10^-9 M to 10^-5 M, as well as one set of replicate cultures treated with vehicle only (for a total of twelve cultures per experimental treatment). Hormones were dissolved in ethanol and applied to the cultures in media as described above. The four estrogens and antiestrogens tested were:
a. 17β-estradiol (Sigma Chemical Corp., St. Louis, Mo.);

Series [2] has as its system TGFβ-3 promoter. In words: Comparative induction of reporter gene from TGFβ-3 promoter (pB-301, pRSVER, MG63) by raloxifene and related compounds. The settings on record: for reporter gene expression: 0 M 0.61; for induction of reporter gene expression (in words): MG63 cells. Type of series: cell-based, human. In general terms: A reporter such as luciferase makes a cellular process visible.

A further series concerns uterotropic activity. The settings on record: ovariectomized rats; cited from earlier work.
Series [3] deals with estrogen responsive elements. The conditions noted are these: in vitro; cited from earlier work.
Another series concerns TGFβ-1 promoter. In words: CAT reporter expression, TGFβ-1 promoter (phTG12), MG63 cells cotransfected with pRSVER.
A further series has as its system TGFβ-2 mRNA. The settings on record: T-47D and MDA-MB-231; cited from earlier work.
The conditions of series [4]: cited from earlier work; for bone density (in words): breast cancer patients.
For series [5], the system named is TGFβ secretion by human fetal fibroblasts. The settings on record: absence of estrogen receptor; cited from earlier work.
Series [6] relates to TGFβ-3 promoter. The series is described as follows: CAT reporter expression, TGFβ-3 promoter (pB-499), MG63 cells cotransfected with pRSVER.
Experimental: (§1) Co-transfection experiments were performed in MG63 (human osteosarcoma) cells, using the ProFection Mammalian Transfection System (Promega). […] The cells were then refed with fresh 3:1 media containing 10% csFBS. Compounds to be evaluated for their ability to modulate reporter gene expression were added at the appropriate times and assayed as described below.
(§2) Cultures of MG63 cells were transiently co-transfected with pRSVER plasmid and either phTG12, pTGF-1, or pB2-499 using the ProFection system (Promega). For each transfected cell culture, DNA-containing calcium phosphate precipitates were added dropwise to each culture dish and mixed thoroughly in the media. The pH of the media was carefully maintained between pH 7.2 and pH 7.4. Transfected cell cultures were then incubated overnight in a 5% CO2 atmosphere at 37° C. For all cultures, the precipitate was removed after overnight incubation by aspirating the media from the culture dishes, followed by rinsing each dish twice with D-PBS. For each cotransfected cell line, the buffer was replaced with 10 ml fresh medium containing 10% csFBS and one of the following compositions:
(§3) a. 10 μl ethanol (hormone vehicle)=control;
(§4) b. 10 μl 17β-estradiol (Sigma) ("estradiol") at a concentration of 10^-4 M in ethanol;
(§5) d. 10 μl Tamoxifen (Sigma) at a concentration of 10^-4 M in ethanol.
(§6) After 24 h incubation with these hormonal preparations (or the vehicle control), cells were washed twice with D-PBS. The cells were then scraped from the culture dishes using a rubber policeman and 1 ml of D-PBS. Cells were collected by centrifugation at 8,000 rpm for 2 minutes in a tabletop centrifuge (MicroMax Model, IEC, Newark, N.Y.). The supernatant was removed and the cell pellets were resuspended in 150 μL of a 0.25M Tris-HCl solution (pH 7.8). Cells were lysed by three cycles of freezing in a dry ice/ethanol bath and thawing in a water bath at 37° C. water bath (for 3 minutes each cycle). Lysed cell preparations were centrifuged at 15,000 rpm for 5 minutes at 4° C. to remove cell debris. Supernatants containing the soluble cell lysate were transferred to a new set of tubes for assaying chloramphenicol acetyltransferase (CAT) activity.
(§7) Before performing CAT assays on such cell lysates, the protein content of each lysate was first determined using a commercially-available assay (BioRad Laboratories, Richmond, Calif.). […]
A further series concerns TGFβ-2 promoter. The series is described as follows: CAT reporter expression, TGFβ-2 promoter (pTGF-1), MG63 cells cotransfected with pRSVER.
The test system of the next series is TGFβ-1. The conditions noted are these: three months of treatment; cited from earlier work.
Series [7] has as its system human endometrial cancer cell line (Ishikawa). The conditions noted are these: cited from earlier work.
Series [8] deals with osteoblasts and osteoclasts. The settings on record: cited from earlier work.
For series [9], the system named is human endometrial cancer cell line (HEC-50). The settings on record: cited from earlier work.
In series [10] the test system is mesenchymal cells and epithelial cells; fibroblasts, macrophages and smooth muscle cells. The settings on record: cited from earlier work.
The subject of series [11] is osteoblast enriched bone cell cultures. The conditions noted are these: relative to TGFβ-1; cited from earlier work.
[12] abbreviates: Homo sapiens, MG-63, 24 h, read-out: Fold Ind.

Experimental for TGFβ-1 promoter: as §1, §2, §3, §4, §5, §6
Before performing CAT assays on such cell lysates, the protein content of each lysate was first determined using a commercially-available assay (BioRad Laboratories, Richmond, Calif.). An amount of each cell lysate containing 100 μg total protein was then mixed with CAT assay buffer (0.4M Tris-HCl (pH 7.8)/ 0.5 mM acetyl-CoA (Boehringer Mannheim)/ 0.1 μCi D-threo-(dichloroacetyl-1,2-[^14 C]-chloramphenicol) for 15 hours. After this incubation, reactions were stopped by vigorously extracting the reaction mixture with 900 μL ethyl acetate. The organic and aqueous phases were separated by brief centrifugation at 14,000 rpm for 1 minute, and approximately 800 μL of the organic phase was transferred to a new set of tubes. Ethyl acetate was evaporated to concentrate the CAT-catalyzed reaction products.
Acetylated and unacetylated chloramphenicol species were resolved by thin layer chromatography using a mixture of 95:5 (v/v) chloroform:methanol as the ascending buffer.
Experimental for TGFβ-2 promoter: as §1, §2, §3, §4, §5, §6, §7

`CCCCN(C)C(=O)CCCCCCCCCC[C@@H]1Cc2cc(O)ccc2[C@H]2CC[C@]3(C)[C@@H](O)CC[C@H]3[C@H]12` [ICI]: the CAT activity with TGFβ-3 promoter [1] (10^-5 M) was 6.5; in the series with TGFβ-3 promoter [1] (10^-6 M) it was 15.2; in the series with TGFβ-3 promoter [1] (10^-7 M), 10.9; in the series with TGFβ-3 promoter [1] (10^-8 M), 0.88; with TGFβ-3 promoter [1] (10^-9 M) it was 0.89. The EC50 in the series with TGFβ-3 promoter [1] (Homo sapiens, MG-63, 24 h, read-out: ED50) came to 100 nM. Moreover, the “TGFβ-3 promoter activation (in words)” value with TGFβ-3 promoter [1] (MG63 cells) is “much less active at high concentrations (10^-5 M)”.

For the molecule `O=C(c1ccc(O)cc1)c1sc2ccccc2c1-c1ccccc1` [LY81099, p-hydroxyphenyl 3-phenylbenzo[B]thien-2-yl ketone], the reporter gene expression in the series with TGFβ-3 promoter [2] (10^-5 M) came to 2.3; in the series on TGFβ-3 promoter [2] (10^-6 M), 0.9; with TGFβ-3 promoter [2] (10^-7 M), 0.7; in the series with TGFβ-3 promoter [2] (10^-8 M) it was 0.5; with TGFβ-3 promoter [2] (10^-9 M), 0.6. Moreover, the “in vivo uterotropic activity (in words)” value in the series with uterotropic activity is reported as “uterotropic”.

`O=C(c1ccc(O)cc1)c1sc2ccc(O)cc2c1-c1ccccc1` [LY112676, (p-hydroxyphenyl) 5-hydroxy-3-phenylbenzo[B]thien-2-yl ketone]: the reporter gene expression in the series on TGFβ-3 promoter [2] (10^-5 M) amounted to 3.8; in the series on TGFβ-3 promoter [2] (10^-6 M), 1.7; in the series on TGFβ-3 promoter [2] (10^-7 M) it was 0.5; in the series on TGFβ-3 promoter [2] (10^-8 M), 0.6; with TGFβ-3 promoter [2] (10^-9 M) it was 0.6. Besides, the “in vivo uterotropic activity (in words)” value in the series on uterotropic activity is recorded as “uterotropic”.

On to `O=C(c1ccc(OCCN2CCCC2)cc1)c1c(-c2ccc(O)cc2)sc2ccccc12` [LY113526, 2-(p-hydroxyphenyl)benzo[B]thien-3-YL p-[2-(1-pyrrolidinyl)ethoxy]phenyl ketone], for which the reporter gene expression with TGFβ-3 promoter [2] (10^-5 M) was found to be 2.1; with TGFβ-3 promoter [2] (10^-6 M), 2.0; in the series on TGFβ-3 promoter [2] (10^-7 M) it was 0.6; in the series on TGFβ-3 promoter [2] (10^-8 M), 0.7; in the series on TGFβ-3 promoter [2] (10^-9 M), 0.7. In the series on uterotropic activity, the “in vivo uterotropic activity (in words)” value was “anti-uterotropic”.

Regarding `COc1ccc(C2=C(C(=O)c3ccc(OCCN4CCCC4)cc3)c3ccccc3CC2)cc1` [LY133314, [3,4-dihydro-2-(4-methoxyphenyl)-1-naphthanlenyl][4-[2-(1-pyrrolidinyl)ethoxy]phenyl]methanone, methanesulfonic acid salt], the reporter gene expression in the series on TGFβ-3 promoter [2] (10^-5 M) was found to be 1.0; with TGFβ-3 promoter [2] (10^-6 M), 6.6; in the series on TGFβ-3 promoter [2] (10^-7 M), 3.1; in the series on TGFβ-3 promoter [2] (10^-8 M) it was 0.7; in the series on TGFβ-3 promoter [2] (10^-9 M) it was 0.7. For the same molecule, the “in vivo uterotropic activity (in words)” value with uterotropic activity is listed as “uterotropic”.

Turning to `O=C(c1ccc(OCCN2CCCCCC2)cc1)c1c(-c2ccc(O)cc2)sc2cc(O)ccc12` [LY139482, [4-[2-(hexahydro-1H-azepin-1-yl)ethoxy]phenyl][6-hydroxy-2-(4-hydroxyphenyl)benzo[B]thien-3-yl]methanone], the reporter gene expression worked out at 2.0 with TGFβ-3 promoter [2] (10^-5 M); 2.5 with TGFβ-3 promoter [2] (10^-6 M); 2.7 in the series with TGFβ-3 promoter [2] (10^-7 M); 2.5 with TGFβ-3 promoter [2] (10^-8 M); 0.8 in the series on TGFβ-3 promoter [2] (10^-9 M). Besides, the “in vivo uterotropic activity (in words)” value in the series with uterotropic activity is reported as “anti-uterotropic”.

In the case of `CC(C)(C)C(=O)Oc1ccc(-c2sc3cc(OC(=O)C(C)(C)C)ccc3c2C(=O)c2ccc(OCCN3CCCCC3)cc2)cc1` [LY177366, [6-(2,2-dimethyl-1-oxopropoxy)-2-[4-(2,2-dimethyl-1-oxopropoxy)phenyl]benzo[B]thien-3-yl][4-[2-1-piperidinyl)ethoxy]phenyl]methanone hydrochloride], the reporter gene expression is reported as 6.1 in the series with TGFβ-3 promoter [2] (10^-5 M); 7.9 in the series on TGFβ-3 promoter [2] (10^-6 M); 10.2 in the series with TGFβ-3 promoter [2] (10^-7 M); 7.9 with TGFβ-3 promoter [2] (10^-8 M); 1.1 in the series on TGFβ-3 promoter [2] (10^-9 M). The “induction of reporter gene expression (in words)” value with TGFβ-3 promoter [2] was “most potent inducer”. The “in vivo uterotropic activity (in words)” value with uterotropic activity is given as “anti-uterotropic”.

On to `CC/C(=C(\c1ccc(O)cc1)c1ccc(OCCN(C)C)cc1)c1ccccc1` [hydroxytamixofen], for which the “binding of estrogen receptor complex to estrogen responsive elements (in words)” value in series [3] was “bind in vitro to DNA binding domains called estrogen responsive elements”.

On to `O=C(c1ccc(OCCN2CCCCC2)cc1)c1c(-c2ccc(O)cc2)sc2cc(O)ccc12` [raloxifene], for which the “ED50 (in words)” value with TGFβ-3 promoter [1] (MG63 cells) is given as “nanomolar concentrations”.

`CC/C(=C(\c1ccccc1)c1ccc(OCCN(C)C)cc1)c1ccccc1` [tamoxifen]: the results for the fold induction at 0.1 µM with TGFβ-1 promoter (setting [12]), in the series with TGFβ-3 promoter [6] (setting [12]) and in the series with TGFβ-2 promoter (setting [12]) were 1.1, 2.6 and 2.6, respectively. Moreover, the “Act. (relative CAT activity)” value with TGFβ-1 promoter (TGFβ-1 promoter, 10 μl of 10^-4 M in 10 ml medium, 24 h, control […]) is reported as 6.9; with TGFβ-3 promoter [6] (TGFβ-3 promoter, 10 μl of 10^-4 M in 10 ml medium, 24 h, control 0.7) it was 1.9; with TGFβ-2 promoter (TGFβ-2 promoter, 10 μl of 10^-4 M in 10 ml medium, 24 h, control 0.8), 2.0. In the series with TGFβ-2 mRNA, the “TGFβ-2 mRNA expression (in words)” value is listed as “did not exhibit the same effect”. For the same molecule, the “bone density (in words)” value in [4] is on record as “appear to be restricted to the lumbar spine, with bone loss being reported in the radius in some breast cancer patients”; in [4] (listed as Tamoxifen), “increase bone density in breast cancer patients”. The “serum cholesterol (in words)” value in [4] (healthy women and women with breast cancer) is “reduce the growth the serum cholesterol”. In [4] (human, in vivo), the “growth of breast tumors (in words)” value is on record as “reduce the growth of breast tumors”. The “serum concentration of LDLs (in words)” value in series [4] (human, in vivo) was “reduce serum concentration of LDLs”. In addition, in series [4] (post-menopausal women), the “weight gain (in words)” value is “contribute to weight gain”. Moreover, the “TGFβ secretion (in words)” value in series [5] is recorded as “induce human fetal fibroblasts to secrete TGFβ”. The “induction of extracellular TGFβ-1 (in words)” value in the series on TGFβ-1 is listed as “correlated with induction of extracellular TGFβ-1”. The CAT activity in the series on TGFβ-3 promoter [1] (10^-5 M) stood at 13.5; in the series with TGFβ-3 promoter [1] (10^-6 M), 2.9; in the series with TGFβ-3 promoter [1] (10^-7 M), 0.98; in the series with TGFβ-3 promoter [1] (10^-8 M), 1.2; in the series on TGFβ-3 promoter [1] (10^-9 M), 0.91. For the same molecule, the “TGFβ-3 promoter activation (in words)” value in the series on TGFβ-3 promoter [1] (MG63 cells) is on record as “activates the TGFβ-3 promoter only at high levels (i.e., greater than micromolar)”.

For the molecule `CN(C)CCOc1ccc(/C(=C(/CCCl)c2ccccc2)c2ccccc2)cc1` [toremifene], in [5], the “TGFβ secretion (in words)” value is recorded as “induce human fetal fibroblasts to secrete TGFβ”.

TGFβ: the “cell division (in words)” value in [7] is listed as “repressed division”. In series [8], the “bone formation / osteoclast effects (in words)” value was “stimulate osteoblastic bone formation and to inhibit osteoclast formation and osteoclast activities”. Moreover, in series [9], the “mitogenic effect (in words)” value is given as “mitogenic”. The “cell growth, biosynthesis and chemotaxis (in words)” value in series [10] was “inhibits the growth of mesenchymal cells and epithelial cells; also recorded: induces biosynthesis of proteoglycans, fibronectins and plasminogen activator; also recorded: chemotactic for fibroblasts, macrophages and smooth muscle cells”.

For the molecule “TGFβ-3: isoform of transforming growth factor β”, the “mitogenesis, collagen synthesis and alkaline phosphatase activity (in words)” value in [11] is listed as “three to five fold higher rate than TGFβ-1”.

Consider “p-hydroxyphenyl3-(-hydroxyphenyl)benzo[B]thien-2-yl ketone [LY98005]”, for which the reporter gene expression in the series with TGFβ-3 promoter [2] (10^-5 M) amounted to 0.5; in the series with TGFβ-3 promoter [2] (10^-6 M), 0.4; in the series with TGFβ-3 promoter [2] (10^-7 M), 0.5; in the series with TGFβ-3 promoter [2] (10^-8 M) it was 0.5; with TGFβ-3 promoter [2] (10^-9 M), 0.4. For the same molecule, the “induction of reporter gene expression (in words)” value in the series on TGFβ-3 promoter [2] is “no induction”. The “in vivo uterotropic activity (in words)” value in the series on uterotropic activity is given as “inert in vivo”.
